Experiments:
[1] = system: Klenow Polmerase; experiment: Primer extension on monoadducted 71-mer, Klenow polymerase; format: biochemical; conditions: 37° C., 0, 5 or 15 minutes
[2] = system: Reverse Transcriptase; experiment: Primer extension on monoadducted 71-mer, reverse transcriptase; format: biochemical; conditions: 37° C., 0, 5 or 15 minutes
[3] = system: 500-mer (lambda plasmid, primers PCR 01/02); experiment: Sterilization sensitivity, 500-mer PCR product; format: biochemical; conditions: CE-III 15 minutes, 30 cycles
Text: (§1) As discussed generally for sterilization, it is expected that the sensitivity of sterilization will depend upon both the modification density and the length of the PCR target sequences. In this experiment, the effect of modification density and target length on sterilization sensitivity were examined by sterilizing two different length PCR products with either AMIP or AMDMIP. Each isopsoralen was used at two different concentrations for the sterilization procedure to produce differing modification densities on PCR targets.
(§2) The two PCR targets used in these experiments were a 115-mer (SK-38/SK-39 HIV system) and a 500-mer. The 500-mer target is obtained from a PCR amplification of a lambda plasmid with primers PCR 01/02. This system is provided by Cetus/Perkin Elmer as a control in their commercial kits of PCR reagents (Catalogue No. N801-0055). For both of these systems equivalent copy numbers of each target were prepared in the following manner: An initial 30 cycle PCR reaction was carried out for each system with the appropriate primers and targets. Aliquots (approximately 10^5-10^6 target copies) of each of these reactions were transferred to a second set of PCR reactions. These second sets of PCR amplifications were carried out in the presence of α-32P-dCTP, again for 30 cycles. Aliquots of these reactions were removed and counted by liquid scintillation counting. With these numbers, the specific activity of the α-32P-dCTP, and the sequence of each of the PCR product oligonucleotides (115-mer and 500-mer), the concentrations of each of the two PCR product oligonucleotides in the second set of PCR reaction tubes was determined. Both the 115-mer and the 500-mer concentrations were then adjusted to exactly 1×10^−8M by the addition of additional Taq buffer. These stocks of equivalent copy number of PCR products were then used for further investigation. Each of the stock solutions then was subdivided into four reaction tubes. The reaction tubes were adjusted to contain the following: Tube 1, 100 μg/ml AMIP; Tube 2, 400 μg/ml AMIP; Tube 3, 100 μ/ml AMDMIP: and Tube 4, 400 μg/ml AMDMIP. Each of these samples were again split into two portions, one part being irradiated for 15 minutes at room temperature with the CE-III device and the other part kept in the dark. Serial dilutions of the irradiated and the unirradiated targets were then carried out on these samples for 30 cycles in the presence of α-32P-CTP. Aliquots of these samples were analyzed on denaturing polyacrylamide gels. The PCR product bands were visualized by autoradiography, cut, and counted in a liquid scintillation counter.

[4] = system: calf thymus DNA; experiment: Equilibrium dialysis dark binding (association constant); conditions: for Ka: 4° C., five days, dark, isopsoralen:DNA base pair 1:15
Method: Equilibrium Dialysis was used to determine the association (“dark binding”) constants of AMIP, AMDMIP and MIP with calf thymus DNA. The tritium labelled isopsoralens were used for the experiment. The method was a modification of that of Isaacs et al. Biochemistry 16, 1058-1066 (1977).
Spectrapor 2 dialysis tubing (Spectrum) was pre-treated by boiling in saturated sodium bicarbonate then rinsed thoroughly with double distilled water. Calf thymus DNA (Sigma) was prepared at a concentration of 50 μg/ml in 1×TE. The samples were prepared by placing 1.0 ml of the DNA solution inside the bag and using enough isopsoralen to provide an isopsoralen:DNA base pair ratio of 1:15. The samples were prepared with the tritiated isopsoralen (“Drug”) placed either inside or outside of the dialysis bag (each sample was placed in a scintillation vial containing a small magnetic stir bar). The samples were stirred at 4° C. for five days in the dark. After this period the bags were removed, opened, and the radioactivity inside and outside the bag determined by scintillation counting. The concentration of the DNA was determined by measuring optical density at 260 nm. The […] constant (Ka) was calculated from this information (Table 9). Preparing the samples in duplicate with the isopsoralen both inside and outside the dialysis bag provided a check that the system had come to equilibrium at the end of the dialysis period (the amount of isopsoralen inside and outside the bag at equilibrium should be, and was, the same in both cases).
The association constant, Ka is defined here as [formula]
for the reaction P+DNA P:DNA where P=free drug in solution, DNA=DNA binding site for the drug, and P:DNA=drug associated with the DNA. The following summarizes the Ka values determined for the compounds: […]

[5] = system: E. coli DNA Polymerase; experiment: Primer extension on monoadducted 71-mer, E. coli DNA polymerase; format: biochemical; conditions: 37° C., 0, 5 or 15 minutes
[6] = system: 115-mer (SK-38/SK-39 HIV system); experiment: Sterilization sensitivity, 115-mer PCR product; format: biochemical; conditions: CE-III 15 minutes, 30 cycles
Text: as §1, §2

[7] = system: calf thymus DNA; experiment: Binding of photoproduct to nucleic acid (dark reaction after pre-irradiation)
Method: The nucleic acid binding properties of photoproduct were investigated with calf thymus DNA. 200 μg/ml of ^3H-AMDMIP (1×10^5 CPM/ml) in Taq buffer was irradiated at room temperature with either the CE-III device or the PTI device. This irradiation was performed for 15 minutes in the absence of nucleic acid. Following the irradiations, 200 μl of the irradiated solution was mixed with 200 μl of 1000 μg/ml DNA solution in Taq buffer. Several identical samples were prepared in this manner. One set of samples was allowed to react with the DNA for 2 hours at room temperature. The other set of samples was subjected to 30 cycles of heating and cooling by placing the samples in a thermal cycler [Perkin-Elmer Cetus DNA Thermal Cycler (Part No. N8010150); each cycle involved 93° C. for 30 seconds, 55° C. for 30 seconds and 72° C. for 1 minute]. When the DNA reactions were complete, all samples were analyzed for DNA-associated tritium counts (CPM) by following the flow chart outlined in FIG. 17.
The DNA-associated counts are given in terms of adducts per 100 base pairs in Table 10. For calculation purposes, these adducts are reported as if they represented monomers of AMDMIP. Regardless of the accuracy of this approximation, the process of irradiating ^3H-AMDMIP clearly results in a tritiated product which associates (i.e. binds) with DNA in the absence of subsequent activating wavelengths of electromagnetic radiation. The extent of the association is shown in Table 10 to depend upon the reaction conditions.

[8] = tritiated drug placed inside dialysis bag
[9] = tritiated drug placed outside dialysis bag

SMILES | block of primer extension by 71-mer monoadduct [1] | block of primer extension by 71-mer monoadduct [2] | sterilization sensitivity (carryover sterilized) ([3]; 100 μg/ml) | sterilization sensitivity (carryover sterilized) ([3]; 400 μg/ml) | Ka (DNA association constant) relative to AMDMIP [4] | Ka [4, 8] | Ka [4, 9] | block of primer extension by 71-mer monoadduct [5] | sterilization sensitivity (carryover sterilized) ([6]; 100 μg/ml) | sterilization sensitivity (carryover sterilized) ([6]; 400 μg/ml) | ADDUCTS PER 1000 BASE PAIRS ([7]; device CE-II, pre-irradiated 15 mins. without nucleic acid, dark reaction room temp.) | ADDUCTS PER 1000 BASE PAIRS ([7]; device CE-III, pre-irradiated 15 mins. without nucleic acid, dark reaction thermally cycled) | ADDUCTS PER 1000 BASE PAIRS ([7]; device PTI, pre-irradiated 15 mins. without nucleic acid, dark reaction thermally cycled) | ADDUCTS PER 1000 BASE PAIRS ([7]; no irradiation, dark reaction room temp. 2 hours) | ADDUCTS PER 1000 BASE PAIRS ([7]; no irradiation, dark reaction thermally cycled 30 cycles)
NCc1cc2occc2c2oc(=O)ccc12 [AMIP, 5-Aminomethylisopsoralen] | not complete stops | complete stops | more effectively sterilized than the 115-mer PCR product | ≥ 6×10^9 molecules of carryover | 28% | 2.96 × 10^4 | 2.21 × 10^4 | not complete stops | about 10,000 molecules of carryover | about 10^6 carryover molecules |  |  |  |  | 
Cc1oc2ccc3c(C)cc(=O)oc3c2c1CN [AMDMIP, 4′-Aminomethyl-4,5′-dimethylisopsoralen] | complete stop | complete stop | ≥ 6×10^9 carryover molecules | no signal in the irradiated dilution series |  | 7.66 × 10^4 | 1.07 × 10^5 | complete stop | better sterilization agent | ≥ 6×10^9 carryover molecules | 4.4 | 24.3 | 5.7 | 1.1 | 0.9
Cc1cc2occc2c2oc(=O)ccc12 [MIP, 5-Methylisopsoralen] | not complete stops | complete stops |  |  |  | 9.08 × 10^3 | 2.07 × 10^3 | not complete stops |  |  |  |  |  |  | 

Reference: patent US6680025B2, “Device and method for photoactivation” (Cerus Corporation, priority 1989, dated 2004)
